# Earlier results as cited in PubChem BioAssay AID1259409 (Chemical Carcinogenesis Research Information System (CCRIS), 2018).
# Test system: rodent chemically induced tumor inhibition, incidence and multiplicity
# Assay: CCRIS tumor inhibitor studies
# Conditions: Dose [Inhibitor]: 0, Species: MOUSE, Promoter: NONE USED
Structure (SMILES),"tumour outcome (control, treated, inhibition, significance) (Carcinogen: METHYLCHOLANTHRENE, 56-49-5, 5.5 MG IN 0.05 ML SUNFLOWER OIL 1/WK FOR 1 YR BEGINNING POST CARCINOGEN TREATMENT (STUDY DURATION: 24 MO), Route [Inhibitor]: GAVAGE, Strain/Sex: SWISS/FEMALE, Target Tissue: Type of Lesion: LUNG: PAPILLARY ADENOMA AND ADENOCARCINOMA, Dose [Carcinogen]: 0.01 MG ON D 1, 7, 14 AND 21 AFTER BIRTH)","tumour outcome (control, treated, inhibition, significance) (Carcinogen: METHYLCHOLANTHRENE, 56-49-5, 5.5 MG IN 0.05 ML SUNFLOWER OIL 1/WK FOR 1 YR BEGINNING POST CARCINOGEN TREATMENT (STUDY DURATION: 24 MO), Route [Inhibitor]: GAVAGE, Strain/Sex: SWISS/MALE, Target Tissue: Type of Lesion: LIVER: HEPATOCELLULAR ADENOMA AND CARCINOMA)","tumour outcome (control, treated, inhibition, significance) (Carcinogen: METHYLCHOLANTHRENE, 56-49-5, 5.5 MG IN 0.05 ML SUNFLOWER OIL 1/WK FOR 1 YR BEGINNING POST CARCINOGEN TREATMENT (STUDY DURATION: 24 MO), Route [Inhibitor]: GAVAGE, Strain/Sex: SWISS/MALE, Target Tissue: Type of Lesion: LUNG: PAPILLARY ADENOMA AND ADENOCARCINOMA, Dose [Carcinogen]: 0.01 MG ON D 1, 7, 14 AND 21 AFTER BIRTH)","tumour outcome (control, treated, inhibition, significance) (Carcinogen: METHYLCHOLANTHRENE, 56-49-5, 5.5 MG IN 0.05 ML SUNFLOWER OIL 1/WK FOR 1 YR BEGINNING POST CARCINOGEN TREATMENT (STUDY DURATION: 24 MO), Route [Inhibitor]: GAVAGE, Strain/Sex: SWISS/MALE, Target Tissue: Type of Lesion: SKIN: SARCOMA AND CARCINOMA, Dose [Carcinogen]: 0.01 MG ON D 1, 7, 14 AND 21 AFTER BIRTH)","tumour outcome (control, treated, inhibition, significance) (Carcinogen: METHYLCHOLANTHRENE, 56-49-5, 5.5 MG IN 0.05 ML SUNFLOWER OIL 1/WK FOR 1 YR BEGINNING POST CARCINOGEN TREATMENT (STUDY DURATION: 24 MO), Route [Inhibitor]: GAVAGE, Strain/Sex: SWISS/MALE, Target Tissue: Type of Lesion: SPLEEN: LYMPHOMA, Dose [Carcinogen]: 0.01 MG ON D 1, 7, 14 AND 21 AFTER BIRTH)","tumour outcome (control, treated, inhibition, significance) (Carcinogen: SAFROLE, 94-59-7, 5.5 MG IN 0.05 ML SUNFLOWER OIL 1/WK FOR 1 YR BEGINNING POST CARCINOGEN TREATMENT (STUDY DURATION: 24 MO), Route [Inhibitor]: GAVAGE, Strain/Sex: SWISS/FEMALE, Target Tissue: Type of Lesion: LUNG: PAPILLARY ADENOCARCINOMA, Dose [Carcinogen]: 0.2 MG ON D 1 AND 7 AFTER BIRTH THEN 0.4 MG ON D 14 AND 21)","tumour outcome (control, treated, inhibition, significance) (Carcinogen: SAFROLE, 94-59-7, 5.5 MG IN 0.05 ML SUNFLOWER OIL 1/WK FOR 1 YR BEGINNING POST CARCINOGEN TREATMENT (STUDY DURATION: 24 MO), Route [Inhibitor]: GAVAGE, Strain/Sex: SWISS/FEMALE, Target Tissue: Type of Lesion: SKIN: SARCOMA, Dose [Carcinogen]: 0.2 MG ON D 1 AND 7 AFTER BIRTH THEN 0.4 MG ON D 14 AND 21)","tumour outcome (control, treated, inhibition, significance) (Carcinogen: SAFROLE, 94-59-7, 5.5 MG IN 0.05 ML SUNFLOWER OIL 1/WK FOR 1 YR BEGINNING POST CARCINOGEN TREATMENT (STUDY DURATION: 24 MO), Route [Inhibitor]: GAVAGE, Strain/Sex: SWISS/MALE, Target Tissue: Type of Lesion: LIVER: HEPATOCELLULAR CARCINOMA, Dose [Carcinogen]: 0.2 MG ON D 1 AND 7 AFTER BIRTH THEN 0.4 MG ON D 14 AND 21)","tumour outcome (control, treated, inhibition, significance) (Carcinogen: SAFROLE, 94-59-7, 5.5 MG IN 0.05 ML SUNFLOWER OIL 1/WK FOR 1 YR BEGINNING POST CARCINOGEN TREATMENT (STUDY DURATION: 24 MO), Route [Inhibitor]: GAVAGE, Strain/Sex: SWISS/MALE, Target Tissue: Type of Lesion: LUNG: PAPILLARY ADENOCARCINOMA, Dose [Carcinogen]: 0.2 MG ON D 1 AND 7 AFTER BIRTH THEN 0.4 MG ON D 14 AND 21)","tumour outcome (control, treated, inhibition, significance) (Carcinogen: SAFROLE, 94-59-7, 5.5 MG IN 0.05 ML SUNFLOWER OIL 1/WK FOR 1 YR BEGINNING POST CARCINOGEN TREATMENT (STUDY DURATION: 24 MO), Route [Inhibitor]: GAVAGE, Strain/Sex: SWISS/MALE, Target Tissue: Type of Lesion: SKIN: SARCOMA, Dose [Carcinogen]: 0.2 MG ON D 1 AND 7 AFTER BIRTH THEN 0.4 MG ON D 14 AND 21)","tumour outcome (control, treated, inhibition, significance) (Carcinogen: SAFROLE, 94-59-7, 5.5 MG IN 0.05 ML SUNFLOWER OIL 1/WK FOR 1 YR BEGINNING POST CARCINOGEN TREATMENT (STUDY DURATION: 24 MO), Route [Inhibitor]: GAVAGE, Strain/Sex: SWISS/MALE, Target Tissue: Type of Lesion: SPLEEN: LYMPHOMA, Dose [Carcinogen]: 0.2 MG ON D 1 AND 7 AFTER BIRTH THEN 0.4 MG ON D 14 AND 21)","tumour outcome (control, treated, inhibition, significance) (Carcinogen: SAFROLE, 94-59-7, 5.5 MG IN 0.05 ML SUNFLOWER OIL 1/WK FOR 1 YR BEGINNING POST CARCINOMA TREATMENT (STUDY DURATION: 24 MO), Route [Inhibitor]: GAVAGE, Strain/Sex: SWISS/FEMALE, Target Tissue: Type of Lesion: SPLEEN: LYMPHOMA, Dose [Carcinogen]: 0.2 MG ON D 1 AND 7 AFTER BIRTH THEN 0.4 MG ON D 14 AND 21)","tumour outcome (control, treated, inhibition, significance) (Carcinogen: TANNIC ACID, 1401-55-4, 5.5 MG IN 0.05 ML SUNFLOWER OIL 1/WK FOR 1 YR BEGINNING POST CARCINOGEN TREATMENT (STUDY DURATION: 24 MO), Route [Inhibitor]: GAVAGE, Strain/Sex: SWISS/FEMALE, Target Tissue: Type of Lesion: LUNG: PAPILLARY ADENOCARCINOMA, Dose [Carcinogen]: 25 MG/KG BW ON D 1, 7, 14 AND 21 AFTER BIRTH)","tumour outcome (control, treated, inhibition, significance) (Carcinogen: TANNIC ACID, 1401-55-4, 5.5 MG IN 0.05 ML SUNFLOWER OIL 1/WK FOR 1 YR BEGINNING POST CARCINOGEN TREATMENT (STUDY DURATION: 24 MO), Route [Inhibitor]: GAVAGE, Strain/Sex: SWISS/FEMALE, Target Tissue: Type of Lesion: SPLEEN: LYMPHOMA, Dose [Carcinogen]: 25 MG/KG BW ON D 1, 7, 14 AND 21 AFTER BIRTH)","tumour outcome (control, treated, inhibition, significance) (Carcinogen: TANNIC ACID, 1401-55-4, 5.5 MG IN 0.05 ML SUNFLOWER OIL 1/WK FOR 1 YR BEGINNING POST CARCINOGEN TREATMENT (STUDY DURATION: 24 MO), Route [Inhibitor]: GAVAGE, Strain/Sex: SWISS/MALE, Target Tissue: Type of Lesion: LUNG: PAPILLARY ADENOCARCINOMA, Dose [Carcinogen]: 25 MG/KG BW ON D 1, 7, 14 AND 21 AFTER BIRTH)","tumour outcome (control, treated, inhibition, significance) (Carcinogen: TANNIC ACID, 1401-55-4, 5.5 MG IN 0.05 ML SUNFLOWER OIL 1/WK FOR 1 YR BEGINNING POST CARCINOGEN TREATMENT (STUDY DURATION: 24 MO), Route [Inhibitor]: GAVAGE, Strain/Sex: SWISS/MALE, Target Tissue: Type of Lesion: SPLEEN: LYMPHOMA, Dose [Carcinogen]: 25 MG/KG BW ON D 1, 7, 14 AND 21 AFTER BIRTH)","tumour outcome (control, treated, inhibition, significance) (Carcinogen: URETHANE, 51-79-6, 50 MG/KG ONCE AT 24 HR AND 1 HR PRIOR TO CARCINOGEN DOSE THEN ONCE 24 HR AND 48 HR POST CARCINOGEN DOSE (STUDY DURATI, Route [Inhibitor]: INTRAPERITONEAL, Strain/Sex: BALB/MALE, FEMALE, Target Tissue: Type of Lesion: LUNG: TUMOR, Dose [Carcinogen]: 0.5 G/KG IN 0.9% SALINE ONCE)"
O=C(/C=C/C=C/c1ccc2c(c1)OCO2)N1CCCCC1,"7/11 (64%), 9/12 (75%), -17%, not calculated","3/13 (23%), 4/13 (31%), -35%, not calculated","10/13 (77%), 10/13 (77%), 0%, not significant","5/13 (38%), 2/13 (15%), 61%, not calculated","2/13 (15%), 3/13 (23%), -53%, not calculated","3/18 (17%), 2/19 (11%), 35%, not calculated","2/18 (11%), 0/19 (0%), 100%, not calculated","7/24 (29%), 1/23 (4%), 86%, p<0.05","5/24 (21%), 2/23 (9%), 57%, not calculated","2/24 (8%), 0/23 (0%), 100%, not calculated","6/24 (25%), 3/23 (13%), 48%, not calculated","9/18 (50%), 7/19 (37%), 26%, not calculated","2/8 (25%), 1/9 (11%), 56%, not calculated","4/8 (50%), 4/9 (44%), 12%, not calculated","3/12 (25%), 2/12 (17%), 32%, not calculated","5/12 (42%), 3/12 (25%), 40%, not calculated",
CCCC(C(=O)OCCN(CC)CC)(c1ccccc1)c1ccccc1,,,,,,,,,,,,,,,,,"94%, 91%, 3%, not significant"
